Experimental data taken from the NIST ThermoML archive (doi:10.1021/je1007197).

Assay: xn = mol fraction of the nth substance listed
Settings: Liquid, Hot wire method

CCCCOCCO [2-butoxyethan-1-ol] + O
Settings | thermal conductivity [W/m/K]
304.15 K, 100 kPa, x1 = 0.0478 | 0.4533
304.15 K, 100 kPa, x1 = 0.1732 | 0.2813
304.15 K, 100 kPa, x1 = 0.5 | 0.1837
304.15 K, 100 kPa, x1 = 0.75 | 0.1655
304.15 K, 10300 kPa, x1 = 0.5 | 0.1877
304.15 K, 10300 kPa, x1 = 0.75 | 0.169
304.15 K, 14200 kPa, x1 = 0.0478 | 0.4568
304.15 K, 15000 kPa, x1 = 0.5 | 0.189
304.15 K, 19300 kPa, x1 = 0.75 | 0.1717
304.15 K, 20300 kPa, x1 = 0.1732 | 0.2857
304.15 K, 26700 kPa, x1 = 0.5 | 0.1936
304.15 K, 27300 kPa, x1 = 0.0478 | 0.4622
304.15 K, 30000 kPa, x1 = 0.1732 | 0.2896
304.15 K, 39500 kPa, x1 = 0.75 | 0.1771
304.15 K, 41800 kPa, x1 = 0.0478 | 0.468
304.15 K, 41800 kPa, x1 = 0.5 | 0.1963
304.15 K, 47200 kPa, x1 = 0.1732 | 0.2942
304.15 K, 54700 kPa, x1 = 0.5 | 0.1995
304.15 K, 54700 kPa, x1 = 0.75 | 0.1812
304.15 K, 55400 kPa, x1 = 0.0478 | 0.4704
304.15 K, 70100 kPa, x1 = 0.0478 | 0.4758
304.15 K, 70200 kPa, x1 = 0.1732 | 0.3008
304.15 K, 70200 kPa, x1 = 0.5 | 0.2032
304.15 K, 76500 kPa, x1 = 0.75 | 0.1862
304.15 K, 83900 kPa, x1 = 0.0478 | 0.478
304.15 K, 84200 kPa, x1 = 0.1732 | 0.3043
304.15 K, 84200 kPa, x1 = 0.5 | 0.2066
304.15 K, 91200 kPa, x1 = 0.75 | 0.19
304.15 K, 98200 kPa, x1 = 0.0478 | 0.4845
304.15 K, 98200 kPa, x1 = 0.1732 | 0.3077
304.15 K, 98200 kPa, x1 = 0.75 | 0.1901
304.15 K, 108700 kPa, x1 = 0.5 | 0.2127
304.15 K, 110400 kPa, x1 = 0.1732 | 0.311
304.15 K, 112100 kPa, x1 = 0.0478 | 0.4875
304.15 K, 112200 kPa, x1 = 0.75 | 0.1951
304.15 K, 124800 kPa, x1 = 0.5 | 0.2157
304.15 K, 126000 kPa, x1 = 0.0478 | 0.4917
304.15 K, 126200 kPa, x1 = 0.1732 | 0.3147
304.15 K, 127600 kPa, x1 = 0.75 | 0.1976
304.15 K, 138700 kPa, x1 = 0.0478 | 0.4958
304.15 K, 140100 kPa, x1 = 0.1732 | 0.3175
304.15 K, 140100 kPa, x1 = 0.5 | 0.2189
304.15 K, 140100 kPa, x1 = 0.75 | 0.2005
304.15 K, 150600 kPa, x1 = 0.1732 | 0.3195
304.15 K, 150600 kPa, x1 = 0.75 | 0.2022
317.15 K, 100 kPa, x1 = 0.0478 | 0.4606
317.15 K, 16400 kPa, x1 = 0.0478 | 0.4669
317.15 K, 25500 kPa, x1 = 0.0478 | 0.4697
317.15 K, 41800 kPa, x1 = 0.0478 | 0.475
317.15 K, 56100 kPa, x1 = 0.0478 | 0.4789
317.15 K, 70600 kPa, x1 = 0.0478 | 0.485
317.15 K, 84200 kPa, x1 = 0.0478 | 0.4875
317.15 K, 98200 kPa, x1 = 0.0478 | 0.4926
317.15 K, 112200 kPa, x1 = 0.0478 | 0.4983
317.15 K, 124000 kPa, x1 = 0.0478 | 0.5008
317.15 K, 141000 kPa, x1 = 0.0478 | 0.5066
320.9 K, 100 kPa, x1 = 0.0478 | 0.4774
320.9 K, 2300 kPa, x1 = 0.0478 | 0.4714
320.9 K, 5000 kPa, x1 = 0.0478 | 0.4639
320.9 K, 7500 kPa, x1 = 0.0478 | 0.4677
320.9 K, 10000 kPa, x1 = 0.0478 | 0.4694
320.9 K, 12500 kPa, x1 = 0.0478 | 0.4703
320.9 K, 15000 kPa, x1 = 0.0478 | 0.4705
320.9 K, 19500 kPa, x1 = 0.0478 | 0.4737
320.9 K, 20000 kPa, x1 = 0.0478 | 0.4742
320.9 K, 29800 kPa, x1 = 0.0478 | 0.4774
320.9 K, 52500 kPa, x1 = 0.0478 | 0.4855
320.9 K, 70200 kPa, x1 = 0.0478 | 0.4855
320.9 K, 87700 kPa, x1 = 0.0478 | 0.4986
320.9 K, 105200 kPa, x1 = 0.0478 | 0.5044
320.9 K, 126200 kPa, x1 = 0.0478 | 0.5123
321.15 K, 100 kPa, x1 = 0.5 | 0.1829
321.15 K, 100 kPa, x1 = 0.75 | 0.1624
321.15 K, 10000 kPa, x1 = 0.5 | 0.1864
321.15 K, 10000 kPa, x1 = 0.75 | 0.1656
321.15 K, 19300 kPa, x1 = 0.5 | 0.1892
